Reference: patent publication US20190093170A1, “USE OF TRANSLATIONAL PROFILING TO IDENTIFY TARGET MOLECULES FOR THERAPEUTIC TREATMENT” (THE REGENTS OF THE UNIVERSITY OF CALIFORNIA, priority 2013, published 2019)

System: PC3 human prostate cancer cells
Assay: RNA-seq mRNA abundance (part of ribosome profiling experiment);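 also: average poly(A) RNA-seq read density per codon over the coding sequence, excluding 15 initial and 5 final codons, mapped to hg19 transcripts, taken as mRNA abundance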
Assay type: cell-based
Details: for Rapamycin mRNA: 3-hour treatment with rapamycin (50 nM) in PC3 cells
Procedure: Cells were subsequently treated with cycloheximide (100 μg ml^−1; Sigma) and detergent lysis was performed in the dish. The lysate was treated with DNase and clarified, and a sample was taken for RNA-seq analysis. Lysates were subjected to ribosome footprinting by nuclease treatment. Ribosome-protected fragments were purified, and deep sequencing libraries were generated from these fragments, as well as from poly(A) mRNA purified from non-nuclease-treated lysates. These libraries were analyzed by sequencing on an Illumina GAII.
Ribosome footprint and RNA-seq sequencing reads were aligned against a library of transcripts from the UCSC Known Genes database GRCh37/hg19. The first 25 nucleotides of each read were aligned using Bowtie and this initial alignment was then extended to encompass the full fragment-derived portion of the sequencing read while excluding the linker sequence. Read density profiles were then constructed for the canonical transcript of each gene, using only reads with 0 or 1 total mismatches between the read sequence and the reference sequence, comprised of the transcript fragment followed by the linker sequence. Footprint reads were assigned to an A site nucleotide at position +15 to +17 of the alignment, based on the total fragment length; mRNA reads were assigned to the first nucleotide of the alignment. The average read density per codon was then computed for the coding sequence of each transcript, excluding the first 15 and last 5 codons, which can display atypical ribosome accumulation.
Average read density was used as a measure of mRNA abundance (RNA-seq reads) and of protein synthesis (ribosome profiling reads). For most analyses, genes were filtered to require at least 256 reads in the relevant RNA-seq samples. Translational efficiency was computed as the ratio of ribosome footprint read density to RNA-seq read density, scaled to normalize the translational efficiency of the median gene to 1.0 after excluding regulated genes (log 2 fold-change+1.5 after normalizing for the all-gene median). Changes in protein synthesis, mRNA abundance and translational efficiency were similarly computed as the ratio of read densities between different samples, normalized to give the median gene a ratio of 1.0. This normalization corrects for differences in the absolute number of sequencing reads obtained for different libraries.

SMILES: CO[C@H]1C[C@@H]2CC[C@@H](C)[C@@](O)(O2)C(=O)C(=O)N2CCCC[C@H]2C(=O)O[C@H]([C@H](C)C[C@@H]2CC[C@@H](O)[C@H](OC)C2)CC(=O)[C@H](C)/C=C(\C)[C@@H](O)[C@@H](OC)C(=O)[C@H](C)C[C@H](C)/C=C/C=C/C=C/1C [Rapamycin, rapamycin]
- Rapamycin mRNA (gene ACD): −0.96
- mRNA (gene ACTG1): 0.02
- mRNA (gene AGRN): 0.01
- mRNA (gene ALKBH7): 0.06
- mRNA (gene AP2A1): 0.09
- mRNA (gene ARD1A): −0.04
- mRNA (gene ATP5G2): 0.29
- Rapamycin mRNA (gene C17orf28): −0.44
- mRNA (gene C21orf66): −0.30
- Rapamycin mRNA (gene CCNA1): −0.51
- mRNA (gene CCNI): 0.29
- mRNA (gene CD44): 0.34
- mRNA (gene CIRBP): 0.14
- mRNA (gene CLPTM1): 0.07
- mRNA (gene COL6A2): −0.08
- mRNA (gene CRTAP): 0.29
- Rapamycin mRNA (gene DDX51): −0.24
- Rapamycin mRNA (gene DGCR2): −0.66
- mRNA (gene ECSIT): −0.04
- Rapamycin mRNA (gene EEF1A1): 0.46
- mRNA (gene EEF1A2): 0.03
- mRNA (gene EEF1D): 0.18
- mRNA (gene EEF1G): 0.21
- mRNA (gene EEF2): 0.39
- mRNA (gene EIF3H): 0.16
- mRNA (gene EIF3L): 0.28
- mRNA (gene EIF4B): 0.55
- mRNA (gene EVPL): −0.08
- mRNA (gene FAM83H): −0.17
- mRNA (gene FAM128B): 0.06
- mRNA (gene FASN): −0.37
- mRNA (gene GLTSCR2): 0.31
- mRNA (gene GNB2L1): 0.19
- Rapamycin mRNA (gene GTPBP3): −0.73
- mRNA (gene HNRNPA1): 0.18
- mRNA (gene HSPA8): −0.21
- mRNA (gene IMPDH2): 0.11
- mRNA (gene LAMA5): −0.32
- mRNA (gene LMF2): 0.22
- Rapamycin mRNA (gene MAPK6): 0.13
- Rapamycin mRNA (gene MAPKAPK2): −0.21
- mRNA (gene MTA1): 0.00
- mRNA (gene NCLN): −0.05
- Rapamycin mRNA (gene NFATC21P): −0.16
- Rapamycin mRNA (gene NR2F1): 0.05
- mRNA (gene PABPC1): 0.35
- mRNA (gene PABPC4): 0.24
- mRNA (gene PACS1): 0.07
- mRNA (gene PFDN5): 0.11
- mRNA (gene PGLS): 0.03
- mRNA (gene PGM1): 0.40
- mRNA (gene PNKP): −0.24
- Rapamycin mRNA (gene PRKD3): −0.22
- mRNA (gene PTGES2): −0.19
- mRNA (gene RABGGTB): −0.20
- mRNA (gene RPL3): 0.18
- mRNA (gene RPL4): 0.22
- mRNA (gene RPL7): 0.15
- mRNA (gene RPL7A): 0.17
- mRNA (gene RPL9): 0.16
- mRNA (gene RPL10): 0.09
- mRNA (gene RPL10A): 0.16
- mRNA (gene RPL11): 0.09
- mRNA (gene RPL12): 0.07
- mRNA (gene RPL13): 0.14
- mRNA (gene RPL13A): 0.15
- mRNA (gene RPL15): 0.11
- mRNA (gene RPL18A): 0.17
- mRNA (gene RPL19): 0.14
- mRNA (gene RPL21): 0.14
- mRNA (gene RPL22): 0.08
- mRNA (gene RPL24): 0.11
- mRNA (gene RPL26): 0.15
- mRNA (gene RPL27): 0.05
- mRNA (gene RPL27A): 0.06
- mRNA (gene RPL28): 0.24
- Rapamycin mRNA (gene RPL28): 0.64
- mRNA (gene RPL31): −0.02
- mRNA (gene RPL32): 0.22
- mRNA (gene RPL34): 0.11
- mRNA (gene RPL36A): 0.13
- mRNA (gene RPL37A): 0.08
- mRNA (gene RPL39): 0.17
- Rapamycin mRNA (gene RPL39): 0.30
- mRNA (gene RPL41): 0.04
- mRNA (gene RPLP0): 0.15
- mRNA (gene RPLP1): 0.28
- mRNA (gene RPLP2): 0.26
- mRNA (gene RPS2): 0.07
- mRNA (gene RPS3): 0.22
- mRNA (gene RPS3A): 0.22
- mRNA (gene RPS4X): 0.18
- mRNA (gene RPS5): 0.14
- mRNA (gene RPS7): 0.11
- mRNA (gene RPS9): 0.10
- mRNA (gene RPS12): 0.11
- mRNA (gene RPS13): 0.07
- mRNA (gene RPS14): 0.10
- mRNA (gene RPS15): −0.01
- mRNA (gene RPS15A): 0.07
- mRNA (gene RPS19): 0.15
- mRNA (gene RPS20): 0.18
- Rapamycin mRNA (gene RPS20): 0.14
- mRNA (gene RPS21): −0.01
- mRNA (gene RPS25): 0.04
- mRNA (gene RPS27): 0.10
- Rapamycin mRNA (gene RPS27): 0.07
- mRNA (gene RPS27A): 0.16
- mRNA (gene RPS28): 0.01
- Rapamycin mRNA (gene SDCCAG10): −0.19
- mRNA (gene SLC19A1): -0.36
- mRNA (gene TKT): 0.02
- mRNA (gene TPT1): 0.24
- mRNA (gene TSC2): −0.15
- mRNA (gene UBA52): 0.12
- Rapamycin mRNA (gene UBTD2): 0.19
- Rapamycin mRNA (gene UCHL5): −0.08
- Rapamycin mRNA (gene VHL): −0.23
- mRNA (gene VIM): 0.36
- mRNA (gene YB1): 0.11
